Laboratory results: the NIST ThermoML archive (doi:10.1016/j.jct.2015.08.013)
Numbers after ± are expanded uncertainties.

Key:
[1] = 100 kPa, Liquid; for viscosity: Capillary tube (Ostwald / Ubbelohde) method; for mass density: Vibrating tube method
[2] = xn = mol fraction of the nth substance listed; conditions: 100 kPa, Liquid, x1 = 1; for mass density: Vibrating tube method; for viscosity: Capillary tube (Ostwald / Ubbelohde) method

Compound | viscosity ([1]; 298.15 K) [mPa·s] | viscosity ([1]; 303.15 K) [mPa·s] | viscosity ([1]; 308.15 K) [mPa·s] | viscosity ([1]; 313.15 K) [mPa·s] | viscosity ([1]; 318.15 K) [mPa·s] | viscosity ([1]; 323.15 K) [mPa·s] | mass density ([2]; 293.15 K) [kg/m3] | viscosity ([2]; 298.15 K) [mPa·s] | mass density ([2]; 298.15 K) [kg/m3] | viscosity ([2]; 303.15 K) [mPa·s] | mass density ([2]; 303.15 K) [kg/m3] | viscosity ([2]; 308.15 K) [mPa·s] | mass density ([2]; 308.15 K) [kg/m3] | viscosity ([2]; 313.15 K) [mPa·s] | mass density ([2]; 313.15 K) [kg/m3] | viscosity ([2]; 318.15 K) [mPa·s] | mass density ([2]; 318.15 K) [kg/m3] | viscosity ([2]; 323.15 K) [mPa·s] | mass density ([2]; 323.15 K) [kg/m3] | other results
CC1COC(=O)O1 (stereo not given) [4-methyl-1,3-dioxolan-2-one] | 2.52 ± 0.052 | 2.27 ± 0.047 | 2.08 ± 0.043 | 1.91 ± 0.04 | 1.75 ± 0.036 | 1.62 ± 0.034 |  |  |  |  |  |  |  |  |  |  |  |  |  | 
CN1CCCC1=O [N-methylpyrrolidone] | 1.677 ± 0.036 | 1.536 ± 0.033 | 1.429 ± 0.03 | 1.338 ± 0.029 | 1.248 ± 0.027 | 1.178 ± 0.025 |  |  |  |  |  |  |  |  |  |  |  |  |  | mass density ([1]; 293.15 K): 1032.66 ± 1.6 kg/m3; mass density ([1]; 298.15 K): 1028.17 ± 1.6 kg/m3; mass density ([1]; 303.15 K): 1023.6 ± 1.6 kg/m3; mass density ([1]; 308.15 K): 1019.49 ± 1.6 kg/m3; mass density ([1]; 313.15 K): 1014.74 ± 1.6 kg/m3; mass density ([1]; 318.15 K): 1010.2 ± 1.6 kg/m3; mass density ([1]; 323.15 K): 1005.89 ± 1.6 kg/m3
CN1CCCC1=O [N-methylpyrrolidone] + O=C1CCCO1 |  |  |  |  |  |  | 1032.66 ± 1.6 | 1.677 ± 0.036 | 1028.17 ± 1.6 | 1.536 ± 0.033 | 1023.6 ± 1.6 | 1.429 ± 0.03 | 1019.49 ± 1.6 | 1.338 ± 0.029 | 1014.74 ± 1.6 | 1.248 ± 0.027 | 1010.2 ± 1.6 | 1.178 ± 0.025 | 1005.89 ± 1.6 | 
CN1CCCC1=O [N-methylpyrrolidone] + CC1COC(=O)O1 |  |  |  |  |  |  | 1032.66 ± 1.6 | 1.677 ± 0.036 | 1028.17 ± 1.6 | 1.536 ± 0.033 | 1023.6 ± 1.6 | 1.429 ± 0.03 | 1019.49 ± 1.6 | 1.338 ± 0.029 | 1014.74 ± 1.6 | 1.248 ± 0.027 | 1010.2 ± 1.6 | 1.178 ± 0.025 | 1005.89 ± 1.6 | 
